# Laboratory results from the supplement of paper PMC10307832.
# How the values were obtained:
# Assay in all cases: relative viability (nuclei count vs DMSO), 5 days (fraction); higher = more cells survive
# Zosuquidar + Bortezomib = compound: O[C@@H](COc1cccc2ncccc12)CN1CCN([C@@H]2c3ccccc3[C@@H]3[C@H](c4ccccc42)C3(F)F)CC1 [Zosuquidar] + CC(C)C[C@H](NC(=O)[C@H](Cc1ccccc1)NC(=O)c1cnccn1)B(O)O [Bortezomib] (partner 0.002 µM)
# In short: (§1)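 Lung cancer cell lines in 1536-well plates were dosed by pin tool the day after seeding, either with one drug alone or with a fixed anchor-drug dose plus five library-drug doses (not always all listed) in √10 steps. After 5 days, cells were fixed and their nuclei stained in one step (final 0.05% Triton X-100, 1% formaldehyde, 1 ug/ml Hoechst), then counted on 4× images. Relative viability is the nuclei count in treated wells divided by that in vehicle wells. Values are medians of duplicate plates.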
# Cabozantinib + Foretinib = compound: COc1cc2nccc(Oc3ccc(NC(=O)C4(C(=O)Nc5ccc(F)cc5)CC4)cc3)c2cc1OC [Cabozantinib] + COc1cc2c(Oc3ccc(NC(=O)C4(C(=O)Nc5ccc(F)cc5)CC4)cc3F)ccnc2cc1OCCCN1CCOCC1 [Foretinib] (partner 0.25 µM)
# In short: as §1
# Zosuquidar + Luminespib = compound: O[C@@H](COc1cccc2ncccc12)CN1CCN([C@@H]2c3ccccc3[C@@H]3[C@H](c4ccccc42)C3(F)F)CC1 [Zosuquidar] + CCNC(=O)c1noc(-c2cc(C(C)C)c(O)cc2O)c1-c1ccc(CN2CCOCC2)cc1 [Luminespib] (partner 0.01 µM)
# In short: as §1
# Kobe2602 + Foretinib = compound: C1=CC(=CC=C1NC(=S)NNC2=C(C=C(C=C2[N+](=O)[O-])C(F)(F)F)[N+](=O)[O-])F [Kobe2602] + COc1cc2c(Oc3ccc(NC(=O)C4(C(=O)Nc5ccc(F)cc5)CC4)cc3F)ccnc2cc1OCCCN1CCOCC1 [Foretinib] (partner 0.25 µM)
# In short: as §1
Cell Line,relative viability (Zosuquidar + Bortezomib; first compound 0.01 µM),relative viability (Zosuquidar + Bortezomib; first compound 0.03162 µM),relative viability (Zosuquidar + Bortezomib; first compound 0.1 µM),relative viability (Zosuquidar + Bortezomib; first compound 0.3162 µM),relative viability (Zosuquidar + Bortezomib; first compound 1 µM),relative viability (Cabozantinib + Foretinib; first compound 0.02 µM),relative viability (Cabozantinib + Foretinib; first compound 0.06325 µM),relative viability (Cabozantinib + Foretinib; first compound 0.2 µM),relative viability (Cabozantinib + Foretinib; first compound 0.6325 µM),relative viability (Cabozantinib + Foretinib; first compound 2 µM),relative viability (Zosuquidar + Luminespib; first compound 0.01 µM),relative viability (Zosuquidar + Luminespib; first compound 0.03162 µM),relative viability (Zosuquidar + Luminespib; first compound 0.1 µM),relative viability (Zosuquidar + Luminespib; first compound 0.3162 µM),relative viability (Zosuquidar + Luminespib; first compound 1 µM),relative viability (Kobe2602 + Foretinib; first compound 0.2 µM),relative viability (Kobe2602 + Foretinib; first compound 0.6325 µM),relative viability (Kobe2602 + Foretinib; first compound 2 µM),relative viability (Kobe2602 + Foretinib; first compound 6.325 µM),relative viability (Kobe2602 + Foretinib; first compound 20 µM)
NCI-H2023,0.93,0.939,0.878,1.4,1.06,0.917,1.2,1.05,0.956,0.896,0.796,0.619,0.904,0.776,0.759,0.931,0.803,0.825,0.931,0.933
NCI-H1666,1,0.905,0.714,1.15,0.798,1.04,1.06,0.99,0.949,0.981,0.966,0.978,0.945,1.01,1.08,0.961,0.952,0.973,0.963,1.04
HARA,1.14,1.14,1.08,1.13,1.14,1.04,1.02,0.711,0.949,0.691,0.586,–,0.837,0.92,0.649,0.996,0.795,0.893,0.856,0.892
NCI-H3122,0.942,0.93,0.979,1.04,0.996,0.947,0.973,0.949,0.892,0.946,0.095,0.0891,0.0947,0.0965,0.0865,0.969,0.88,0.967,0.925,0.967
201T,1.09,1.05,0.939,1.05,1.06,–,1.21,1.05,1.05,1.14,1.02,1,0.961,1.12,1.04,1.16,1.17,1.04,0.946,0.93
SK-LU-1,1.17,1.14,0.962,–,1.41,0.868,1.01,0.904,0.845,0.699,0.228,0.201,0.177,0.204,0.219,0.78,0.911,0.81,0.834,0.872
NCI-H1734,0.771,0.959,0.918,0.997,1.06,0.916,0.864,0.878,0.858,0.769,0.222,0.251,0.182,0.187,0.184,0.843,0.938,0.978,0.901,0.855
NCI-H1651,0.928,0.984,0.882,0.91,0.866,1,0.739,1.05,0.875,0.783,0.897,0.973,0.655,0.862,0.792,0.764,0.89,0.762,0.776,0.868
PC-3 [JPC-3],0.849,0.879,0.706,0.765,0.863,1.19,1.2,–,1.09,1.04,0.697,0.647,0.647,0.658,0.75,1.02,1.18,0.994,1.03,1.07
NCI-H1915,1,0.995,1,1.01,1,1.17,1.14,1.08,1.07,1.13,0.742,0.839,0.792,0.753,0.811,1.11,1.09,1.08,1.02,1.06
COR-L23,0.925,0.969,0.893,0.877,1.08,0.978,1.1,0.976,0.977,0.95,0.619,0.631,0.747,0.777,0.776,0.902,0.972,0.966,0.96,0.951
ChaGo-K-1,0.854,0.966,1.08,0.967,0.787,0.937,1.04,0.968,0.836,0.857,0.714,0.625,0.652,0.578,0.512,0.971,1.03,0.865,0.954,0.838
HOP-62,0.6,1.01,0.616,0.42,0.906,1.17,1.19,1.06,1,1.24,0.878,0.947,0.914,0.99,0.896,1.08,1.16,1.18,1.1,1.08
NCI-H1975,0.362,0.34,0.425,0.437,0.341,1.04,1.01,1.1,0.89,0.849,0.264,0.174,0.217,0.213,0.182,0.99,0.915,0.788,0.823,0.931
BEN,0.928,0.734,0.651,0.882,0.773,0.595,0.79,0.708,0.787,0.387,0.374,0.218,0.381,0.274,0.329,0.591,0.706,0.738,0.58,0.768
NCI-H1563,0.842,0.882,0.807,1.04,0.858,1.02,0.907,0.953,0.912,0.893,0.471,0.536,0.523,0.538,0.532,0.996,0.928,0.964,1.02,0.996

Cell Line,relative viability (Zosuquidar + Bortezomib; first compound 0.01 µM),relative viability (Zosuquidar + Bortezomib; first compound 0.03162 µM),relative viability (Zosuquidar + Bortezomib; first compound 0.1 µM),relative viability (Zosuquidar + Bortezomib; first compound 0.3162 µM),relative viability (Zosuquidar + Bortezomib; first compound 1 µM),relative viability (Cabozantinib + Foretinib; first compound 0.02 µM),relative viability (Cabozantinib + Foretinib; first compound 0.06325 µM),relative viability (Cabozantinib + Foretinib; first compound 0.2 µM),relative viability (Cabozantinib + Foretinib; first compound 0.6325 µM),relative viability (Cabozantinib + Foretinib; first compound 2 µM),relative viability (Zosuquidar + Luminespib; first compound 0.01 µM),relative viability (Zosuquidar + Luminespib; first compound 0.03162 µM),relative viability (Zosuquidar + Luminespib; first compound 0.1 µM),relative viability (Zosuquidar + Luminespib; first compound 0.3162 µM),relative viability (Zosuquidar + Luminespib; first compound 1 µM),relative viability (Kobe2602 + Foretinib; first compound 0.2 µM),relative viability (Kobe2602 + Foretinib; first compound 0.6325 µM),relative viability (Kobe2602 + Foretinib; first compound 2 µM),relative viability (Kobe2602 + Foretinib; first compound 6.325 µM),relative viability (Kobe2602 + Foretinib; first compound 20 µM)
EMC-BAC-2,1.02,1.07,1.02,1.22,1.09,1.02,0.973,1.04,0.982,0.962,1.19,1.19,1.05,1.29,1.11,0.938,1.03,0.99,1.04,1.02
NCI-H441,0.43,0.476,0.444,–,0.641,1.25,0.989,0.986,1.18,1.18,0.355,0.244,0.403,0.286,0.326,0.884,0.901,0.978,1.02,0.914
NCI-H727,0.876,0.938,0.708,0.787,0.828,0.675,1.06,1.08,0.818,0.889,0.23,0.344,0.434,0.427,0.431,0.855,0.991,0.919,1.1,0.873
LU99A,1.09,1.14,1.22,1.34,1.37,0.805,0.922,0.906,0.784,0.838,0.201,0.22,0.256,0.276,0.303,0.803,0.874,0.806,0.822,0.769
NCI-H2405,0.931,0.974,0.861,1.02,0.959,1.01,1.04,1.05,1.05,1.01,0.671,0.687,0.589,0.654,0.824,1.05,1.04,1.01,1.06,1.07
NCI-H2009,0.98,0.917,0.737,1.16,0.966,1.24,1.26,1.19,1.28,1.29,1,1.07,0.986,1.02,0.989,1.15,1.32,1.21,1.19,1.19
HCC-827,0.931,0.961,1.05,1.05,0.844,1.05,1.05,–,1.1,0.988,0.518,0.576,0.501,0.704,0.7,0.999,1.11,1.03,1.04,1.1
NCI-H838,0.824,0.605,0.749,0.813,0.884,1.13,1.08,1.04,1.02,1.01,0.329,0.328,0.28,0.304,0.284,0.934,1.13,0.93,0.971,1.03
CAL-12T,0.974,1.15,–,1.03,0.735,1.22,1.31,1.17,1.08,1.18,0.443,0.575,0.513,0.221,0.504,1.02,1.02,1.09,1.05,1.06
RERF-LC-KJ,1.17,1.16,1.17,1.18,0.992,0.921,0.852,0.863,0.899,0.943,1.28,1.11,1.29,1.34,1.19,0.878,0.952,0.828,0.777,0.763
NCI-H2347,1.2,0.979,1.04,1.22,0.6,0.842,0.916,1.28,1.11,1.05,0.539,0.51,0.256,0.34,0.602,1.32,1.38,0.83,0.63,0.868
PC-14,0.846,0.992,0.782,0.984,0.78,0.99,1,–,1.05,0.976,0.129,–,0.135,0.135,0.124,0.962,0.968,0.922,0.939,0.911
LCLC-97TM1,0.433,0.538,–,0.844,0.464,0.938,1.1,0.993,1.04,0.879,0.765,0.755,0.742,0.814,0.913,0.834,0.928,1.01,0.956,0.924
A-427,0.923,0.971,0.87,1.06,0.901,1.09,1.28,0.89,0.967,0.786,1.15,0.963,0.749,1.13,0.756,0.983,1.21,1.06,1.1,1.08
NCI-H23,0.956,1.24,1.15,1.3,1.33,–,1.03,0.989,0.904,0.836,0.206,0.223,0.223,0.222,0.266,1.02,0.977,0.896,1.12,1
NCI-H520,0.54,0.591,0.565,0.743,0.729,0.756,0.756,0.778,0.804,0.889,0.226,0.192,–,0.193,0.206,0.701,0.846,0.738,0.708,0.892
